{
  "source": "patent US5100905A",
  "about": "“Method for inhibiting growth of bacteria, fungi or algae by treatment with biocide composition” (Rohm and Haas Company, priority 1991, dated 1992)",
  "key": {"[1]": {"assay": "Growth inhibition / minimum inhibitory concentration (MIC) by 2-fold serial dilutions in Trypticase Soy Broth, 3 inoculations", "type": "cell-based", "settings": "read-out: End-point activity (MIC) QA (573 alone)", "description": "(§1) Each single culture was inoculated to TSB agar slants and incubated for 2 days at 30° C. for C. albicans and all bacteria except E. coli and S. aureus, which were at 37° C., and incubated for 10-14 days at 25° C. for fungal cultures. The bacteria and fungi were then washed off the slants with phosphate buffer (0.125 M, pH 7.2) and inoculated into each test tube containing a given concentration and ratio of 573 and 886 to make final cell concentration of about 2×10^7 bacteria and 2×10^6 fungi per ml. […] Seven days after inoculation, 5 microliter of sample from each test tube (containing about 10^5 bacteria and 10^4 fungi from original inoculation) was removed and assessed for viable organisms by 1:50 dilution into TSB medium and checked for regrowth. No viable organisms were detected from the test tubes where MICs were observed. […] Each test tube was reinoculated 2 more times (a total of 3 inoculations) to determine the capacity and the longlasting activity of the combinations.\n(§2) As shown, a wide range of concentration and ratios was tested. More importantly all the critical end-point activities for the combinations were covered. […] Thus, the end-point activities are based on the minimum concentrations of a given ratio of combination product that inhibit all three inoculations."}, "[2]": {"tested_on": "mixture of 12 microorganisms", "assay": "Calculation of synergism of 573 and 651 combinations (Kull et al. method)", "type": "cell-based", "settings": "for SI (synergy index, Qa'/QA + Qb'/.75 QB): <1 synergism, 1 additivity, >1 antagonism", "description": "as §1\nSynergism is determined by the industrially accepted method described by Kull, F. C.; Eisman, P. C.; Sylvestrowicz, H. D. and Mayer, R. L. in Applied Microbiology 9:538-541 (1961) using the ratio determined by [formula] wherein QA=concentration of compound A in parts per million (ppm), acting alone, which produced an end point\nQa=concentration of compound A in ppm, in the mixture, which produced an end point\nQB=concentration of compound B in ppm, acting alone, which produced an end point\nQb=concentration of compound B in ppm, in the mixture, which produced an end point\nWhen the sum of Qa/QA plus Qb/QB is greater than one, antagonism is indicated. When the sum is equal to one, additivity is indicated, and when the sum is less than one, synergism is indicated.\nas §2\nThe end-point activity (MIC in ppm) is taken from Table 1.\nQA is the end-point activity of 573 alone\nQB is the end-point activity of 886 alone\nQa is the end-point activity 573 in the mixture of 573 and 886\nQb is the end-point activity of 886 in the mixture of 573 and 886.\nSince 886 is 25% 573 and 75% 651, the total 573 (Qa') in the combinations is Qa+25% Qb, and the total 651 (Qb') in the combinations is 75% Qb. Total concentration of 573 and 651 in the mixture is Qa' and Qb'. The % 573 in the mixture is Qa'/(Qa'+Qb'), and %651 in the mixture is Qb'/(Qa'+Qb'.)\nTherefore, the calculation of synergy index (SI) is Qa'/QA+Qb'/.75 QB. The most preferred synergy for 573 and 651 combinations is seen at 2.3%-4.5% of 651. Taking the synergy index of less than 0.5 as most significant, then a range of 2.3% to 8.5% of 651 in the 573/651 combinations is preferred."}, "skin of guinea pigs": {"tested_on": "skin of guinea pigs", "assay": "Sensitization study, closed-patch test of Buehler", "type": "in vivo, guinea pig", "description": "The study was conducted to determine the sensitization potential of the synergistic combination of 3.5% 651 and 96.5% 573. The results were compared to the sensitization potential of 886 (containing 75% 651 and 25% 573) and pure 573.\nThe closed-patch test of Buehler Current Concepts in Cutaneous Toxicology, (New York: Academic Press 1970), pp. 25-40, is used to investigate the sensitization potential of the materials in the guinea pig. The combination (1.5% total active ingredient) at aqueous concentrations of 1000, 5000, 10000 and 15000 ppm a.i., the 886 (13.9% total active ingredient) at aqueous concentrations of 250, 500 and 750 ppm a.i. and the 573 (solid containing 99.5% total active ingredient) at aqueous concentrations of 5000, 15000 and 30000 ppm a.i. were applied topically to the skin of guinea pigs by means of occluded patches (0.4 ml per patch). All guinea pigs (10 per group at each concentration) received a total of ten 6-hr induction exposures over a 22 day period. In addition, a group of guinea pigs were treated with dry patches only and served as the naive control group. Two weeks after the last induction treatment guinea pigs induced with the combination were challenged with 3 concentrations of the combination in distilled water (1000, 5000 and 15000 ppm a.i.), those induced with 886 were challenged with 3 concentrations of 886 in distilled water (100, 250 and 750 ppm a.i.) and those induced with 573 alone were challenged with 3 concentrations of 573 in distilled water (1000, 5000 and 15000 ppm a.i.). Twenty-four (24) and 48 hr after the challenge doses, the application sites were examined for erythema reactions and graded from 0 to 3 in accordance with a pre-established scoring system. Reactions graded 1 or greater were judged to be skin sensitization reactions.\n^a Guinea pigs received ten (6 hr.) induction exposures of the ten\nmaterials (0.4 ml per exposure) over a 22 day period.\n^b All guinea pigs received 0.4 ml of challenge doses as specified tw\nweeks after the last induction dose.\n^c Guinea pigs received sham treatment only."}},
  "note": "“And” between values parts separate entries of the source, which are not always exact repeats. Equal values may be shown once. Read-outs that look alike come from different tables or passages of the source.",
  "data": [
    {"molecule": "Cn1sccc1=O", "note": "[compound 573, 2-methyl-4-isothiazolin-3-one]", "values": [
      {"measurement": "MIC", "setting": "[1]; Expt. 1, all three inoculations", "value": 500, "unit": "mg/L"},
      {"measurement": "MIC", "setting": "[1]; Expt. 2, all three inoculations", "value": 125, "unit": "mg/L"},
      {"measurement": "Qa'/QA", "setting": "[2]; Expt. 1", "value": 1.00},
      {"measurement": "Qb'/QB* (QB* = QB × 75%)", "setting": "[2]; Expt. 1", "value": 0.00},
      {"measurement": "Total 573 Qa' (Qa + 25% Qb) at end-point", "setting": "[2]; Expt. 1", "value": 500.0, "unit": "ppm"},
      {"measurement": "Total ppm Qa' + Qb' at end-point", "setting": "[2]; Expt. 1", "value": 500.0, "unit": "ppm"},
      {"measurement": "SI (synergy index, Qa'/QA + Qb'/.75 QB)", "setting": "[2]; Expt. 1", "value": 1.00},
      {"measurement": "Qa'/QA", "setting": "[2]; Expt. 2", "value": 1.00},
      {"measurement": "Qb'/QB* (QB* = QB × 75%)", "setting": "[2]; Expt. 2", "value": 0.00},
      {"measurement": "Total 573 Qa' (Qa + 25% Qb) at end-point", "setting": "[2]; Expt. 2", "value": 125.0, "unit": "ppm"},
      {"measurement": "Total ppm Qa' + Qb' at end-point", "setting": "[2]; Expt. 2", "value": 125.0, "unit": "ppm"},
      {"measurement": "SI (synergy index, Qa'/QA + Qb'/.75 QB)", "setting": "[2]; Expt. 2", "value": 1.00},
      {"measurement": "Overall incidence of responses", "setting": "skin of guinea pigs; 5000 and 15000 ppm induction, 1000, 5000 and 15000 ppm challenge", "value": "7 out of a possible 60 responses"},
      {"measurement": "Erythema", "setting": "skin of guinea pigs; induction 5000 and 15000 ppm a.i., challenge 1000 ppm a.i.", "value": "no erythema was observed"},
      {"measurement": "Erythema responses of 1 or greater at 24 and/or 48 hours", "setting": "skin of guinea pigs; induction 5000 ppm, challenge 1000 ppm (573)", "value": "0/10"},
      {"measurement": "Erythema responses of 1 or greater at 24 and/or 48 hours", "setting": "skin of guinea pigs; induction 5000 ppm, challenge 5000 ppm (573)", "value": "1/10"},
      {"measurement": "Erythema responses of 1 or greater at 24 and/or 48 hours", "setting": "skin of guinea pigs; induction 5000 ppm, challenge 15000 ppm (573)", "value": "2/10"},
      {"measurement": "Erythema responses of 1 or greater at 24 and/or 48 hours", "setting": "skin of guinea pigs; induction 15000 ppm, challenge 1000 ppm (573)", "value": "0/10"},
      {"measurement": "Erythema responses of 1 or greater at 24 and/or 48 hours", "setting": "skin of guinea pigs; induction 15000 ppm, challenge 5000 ppm (573)", "value": "1/10"},
      {"measurement": "Erythema responses of 1 or greater at 24 and/or 48 hours", "setting": "skin of guinea pigs; induction 15000 ppm, challenge 15000 ppm (573)", "value": "3/10"},
      {"measurement": "Erythema responses of 1 or greater at 24 and/or 48 hours", "setting": "skin of guinea pigs; induction 30000 ppm, challenge 1000 ppm", "value": "1/9"},
      {"measurement": "Erythema responses of 1 or greater at 24 and/or 48 hours", "setting": "skin of guinea pigs; induction 30000 ppm, challenge 5000 ppm", "value": "2/9"},
      {"measurement": "Erythema responses of 1 or greater at 24 and/or 48 hours", "setting": "skin of guinea pigs; induction 30000 ppm, challenge 15000 ppm", "value": "3/9"},
      {"measurement": "Erythema responses of 1 or greater at 24 and/or 48 hours", "setting": "skin of guinea pigs; naive control (sham induction), challenge 15000 ppm 573", "value": "No erythema was observed and 0/10"}
    ]}
  ]
}
